{"source": "ChEMBL document CHEMBL4665702", "about": "“Cacalol Acetate, a Sesquiterpene from Psacalium decompositum, Exerts an Anti-inflammatory Effect through LPS/NF-KB Signaling in Raw 264.7 Macrophages” (2020)", "key": {"RAW264.7 [1]": {"tested_on": "RAW264.7", "assay": "Inhibition of NFkappaB in mouse RAW 264.7 cells assessed as reduction in LPS-induced transcriptional activation at 100 uM preincubated for 1 hr followed by LPS administration measured after 25 mins by EMSA relative to control", "format": "cell-based", "conditions": "time 85.0 min"}, "[2]": {"target": "T1, Inhibitor of nuclear factor kappa-B kinase subunit beta (Mus musculus) (UniProt O88351)", "T1 sequence (whole entry)": "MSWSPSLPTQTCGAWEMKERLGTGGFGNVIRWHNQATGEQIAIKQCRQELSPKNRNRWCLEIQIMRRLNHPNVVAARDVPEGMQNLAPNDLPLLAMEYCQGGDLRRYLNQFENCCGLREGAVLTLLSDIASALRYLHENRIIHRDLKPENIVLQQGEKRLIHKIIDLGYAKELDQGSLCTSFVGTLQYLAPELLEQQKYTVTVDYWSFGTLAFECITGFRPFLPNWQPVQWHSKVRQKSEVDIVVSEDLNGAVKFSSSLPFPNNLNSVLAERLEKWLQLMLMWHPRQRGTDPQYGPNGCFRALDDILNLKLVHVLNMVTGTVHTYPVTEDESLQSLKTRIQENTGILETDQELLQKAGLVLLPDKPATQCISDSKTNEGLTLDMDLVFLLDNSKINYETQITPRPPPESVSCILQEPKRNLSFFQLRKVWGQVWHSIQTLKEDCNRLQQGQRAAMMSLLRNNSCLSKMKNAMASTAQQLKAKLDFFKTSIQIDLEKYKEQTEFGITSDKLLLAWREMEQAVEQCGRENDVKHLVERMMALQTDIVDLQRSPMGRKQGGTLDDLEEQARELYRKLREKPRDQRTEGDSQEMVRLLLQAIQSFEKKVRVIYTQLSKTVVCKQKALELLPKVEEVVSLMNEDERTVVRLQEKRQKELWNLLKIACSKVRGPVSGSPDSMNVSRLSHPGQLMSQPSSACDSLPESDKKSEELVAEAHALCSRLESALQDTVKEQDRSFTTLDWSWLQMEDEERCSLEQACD", "assay": "Inhibition of IKK-beta phosphorylation at Ser176/177 residues in LPS-induced mouse RAW 264.7 cells at 50 to 100 uM preincubated for 1 hr followed by LPS administration measured after 25 mins by Western blot analysis", "conditions": "RAW264.7, dose microM 50-100, time 85.0 min"}, "RAW264.7 [3]": {"tested_on": "RAW264.7", "assay": "Anti-inflammatory activity in mouse RAW264.7 cells assessed as inhibition of LPS-induced IL-1beta production at 50 to 100 uM preincubated for 1 hr followed by LPS administration measured after 3 hrs by ELISA", "format": "functional, cell-based", "conditions": "dose microM 50-100, time 4.0 hrs"}, "RAW264.7 [4]": {"tested_on": "RAW264.7", "assay": "Anti-inflammatory activity in mouse RAW264.7 cells assessed as inhibition of LPS-induced IL-6 mRNA expression at 50 to 100 uM preincubated for 1 hr followed by LPS administration measured after 3 hrs by RT-PCR analysis", "format": "functional, cell-based", "conditions": "dose microM 50-100, time 4.0 hrs"}, "RAW264.7 [5]": {"tested_on": "RAW264.7", "assay": "Anti-inflammatory activity in mouse RAW264.7 cells assessed as inhibition of LPS-induced COX2 protein level at 50 to 100 uM preincubated for 90 mins followed by LPS administration measured after 3 hrs by RT-qPCR analysis relative to control", "format": "functional", "conditions": "dose microM 50-100; time 270 min; 4.5 h"}, "RAW264.7 [6]": {"tested_on": "RAW264.7", "assay": "Anti-inflammatory activity in mouse RAW264.7 cells assessed as inhibition of LPS-induced COX2 mRNA expression at 50 to 100 uM preincubated for 90 mins followed by LPS administration measured after 3 hrs by RT-qPCR analysis", "format": "functional, cell-based", "conditions": "dose microM 50-100, time 270.0 min"}, "RAW264.7 [7]": {"tested_on": "RAW264.7", "assay": "Anti-inflammatory activity in mouse RAW264.7 cells assessed as inhibition of LPS-induced TNF-alpha mRNA expression at 50 to 100 uM preincubated for 1 hr followed by LPS administration measured after 3 hrs by RT-PCR analysis", "format": "functional, cell-based", "conditions": "dose microM 50-100, time 4.0 hrs"}, "RAW264.7 [8]": {"tested_on": "RAW264.7", "assay": "Inhibition of NFkappaB in mouse RAW 264.7 cells assessed as reduction in LPS-induced transcriptional activation at 50 uM preincubated for 1 hr followed by LPS administration measured after 25 mins by EMSA relative to control", "format": "cell-based", "conditions": "time 85.0 min"}, "[9]": {"target": "Transcription factor p65 (Mus musculus) (UniProt Q04207)", "assay": "Inhibition of p65 phosphorylation at Ser536 residues in LPS-induced mouse RAW 264.7 cells at 100 uM preincubated for 1 hr followed by LPS administration measured after 25 mins by Western blot analysis relative to control", "conditions": "RAW264.7, time 85.0 min"}, "RAW264.7 [10]": {"tested_on": "RAW264.7", "assay": "Anti-inflammatory activity in mouse RAW264.7 cells assessed as inhibition of LPS-induced IL-1beta mRNA expression at 50 to 100 uM preincubated for 1 hr followed by LPS administration measured after 3 hrs by RT-PCR analysis", "format": "functional, cell-based", "conditions": "dose microM 50-100, time 4.0 hrs"}, "RAW264.7 [11]": {"tested_on": "RAW264.7", "assay": "Anti-inflammatory activity in mouse RAW264.7 cells assessed as inhibition of LPS-induced IL-6 production at 50 to 100 uM preincubated for 1 hr followed by LPS administration measured after 3 hrs by ELISA", "format": "functional, cell-based", "conditions": "dose microM 50-100, time 4.0 hrs"}, "RAW264.7 [12]": {"tested_on": "RAW264.7", "assay": "Anti-inflammatory activity in mouse RAW264.7 cells assessed as inhibition of LPS-induced COX2 level at 50 to 100 uM preincubated for 90 mins followed by LPS administration measured after 3 hrs by fluorimetric analysis relative to control", "format": "functional", "conditions": "dose microM 50-100; time 270 min; 4.5 h"}, "Mus musculus [13]": {"tested_on": "Mus musculus", "assay": "Anti-inflammatory activity in TPA-induced CD-1 mouse ear edema model assessed as ear weight at 1 mg", "format": "functional"}, "RAW264.7 [14]": {"tested_on": "RAW264.7", "assay": "Anti-inflammatory activity in mouse RAW264.7 cells assessed as inhibition of LPS-induced TNF-alpha production at 50 to 100 uM preincubated for 1 hr followed by LPS administration measured after 3 hrs by ELISA", "format": "functional, cell-based", "conditions": "dose microM 50-100, time 4.0 hrs"}, "Mus musculus [15]": {"tested_on": "Mus musculus", "assay": "Anti-inflammatory activity in TPA-induced CD-1 mouse ear edema model assessed as inhibition of ear edema at 1 mg relative to control", "format": "functional"}, "RAW264.7 [16]": {"tested_on": "RAW264.7", "assay": "Anti-inflammatory activity in mouse RAW264.7 cells assessed as inhibition of LPS-induced IL-1beta mRNA expression at 10 uM preincubated for 1 hr followed by LPS administration measured after 3 hrs by RT-PCR analysis", "format": "functional, cell-based", "conditions": "time 4.0 hrs"}, "RAW264.7 [17]": {"tested_on": "RAW264.7", "assay": "Anti-inflammatory activity in mouse RAW264.7 cells assessed as inhibition of LPS-induced TNF-alpha production at 10 uM preincubated for 1 hr followed by LPS administration measured after 3 hrs by ELISA", "format": "functional, cell-based", "conditions": "time 4.0 hrs"}, "[18]": {"target": "Transcription factor p65 (Mus musculus) (UniProt Q04207)", "assay": "Inhibition of p65 phosphorylation at Ser536 residues in LPS-induced mouse RAW 264.7 cells at 10 uM preincubated for 1 hr followed by LPS administration measured after 25 mins by Western blot analysis relative to control", "conditions": "RAW264.7, dose 100.0 µM, time 85.0 min"}, "[19]": {"target": "T1, Inhibitor of nuclear factor kappa-B kinase subunit beta (Mus musculus)", "assay": "Inhibition of IKK-beta phosphorylation at Ser176/177 residues in LPS-induced mouse RAW 264.7 cells at 10 uM preincubated for 1 hr followed by LPS administration measured after 25 mins by Western blot analysis relative to control", "conditions": "RAW264.7, time 85.0 min"}, "RAW264.7 [20]": {"tested_on": "RAW264.7", "assay": "Anti-inflammatory activity in mouse RAW264.7 cells assessed as inhibition of LPS-induced IL-1beta production at 10 uM preincubated for 1 hr followed by LPS administration measured after 3 hrs by ELISA", "format": "functional, cell-based", "conditions": "time 4.0 hrs"}, "RAW264.7 [21]": {"tested_on": "RAW264.7", "assay": "Anti-inflammatory activity in mouse RAW264.7 cells assessed as inhibition of LPS-induced IL-6 production at 10 uM preincubated for 1 hr followed by LPS administration measured after 3 hrs by ELISA", "format": "functional, cell-based", "conditions": "time 4.0 hrs"}, "RAW264.7 [22]": {"tested_on": "RAW264.7", "assay": "Anti-inflammatory activity in mouse RAW264.7 cells assessed as inhibition of LPS-induced IL-6 mRNA expression at 10 uM preincubated for 1 hr followed by LPS administration measured after 3 hrs by RT-PCR analysis", "format": "functional, cell-based", "conditions": "time 4.0 hrs"}, "RAW264.7 [23]": {"tested_on": "RAW264.7", "assay": "Anti-inflammatory activity in mouse RAW264.7 cells assessed as inhibition of LPS-induced TNF-alpha mRNA expression at 10 uM preincubated for 1 hr followed by LPS administration measured after 3 hrs by RT-PCR analysis", "format": "functional, cell-based", "conditions": "time 4.0 hrs"}}, "note": "Activity calls are given as the source filed them. The rule behind the calls is not given here."}
{"smiles": "CC(=O)Oc1c2c(c(C)c3c(C)coc13)[C@@H](C)CCC2", "values": [{"measurement": "fold change (FC)", "setting": "RAW264.7 [1]", "value": 2.1}, {"measurement": "inhibition", "setting": "[2]", "value": "inactive"}, {"measurement": "inhibition", "setting": "RAW264.7 [3]", "value": "Active"}, {"measurement": "inhibition", "setting": "RAW264.7 [4]", "value": "Active"}, {"measurement": "fold change (FC)", "setting": "RAW264.7 [5]", "value": 2}, {"measurement": "inhibition", "setting": "RAW264.7 [6]", "value": "Active"}, {"measurement": "inhibition", "setting": "RAW264.7 [7]", "value": "Active"}, {"measurement": "fold change (FC)", "setting": "RAW264.7 [8]", "value": 1.7}, {"measurement": "fold change (FC)", "setting": "[9]", "value": 0.2}, {"measurement": "inhibition", "setting": "RAW264.7 [10]", "value": "Active"}, {"measurement": "inhibition", "setting": "RAW264.7 [11]", "value": "Active"}, {"measurement": "fold change (FC)", "setting": "RAW264.7 [12]", "value": 2.5}, {"measurement": "Activity", "setting": "Mus musculus [13]", "value": 6.56, "unit": "mg"}, {"measurement": "inhibition", "setting": "RAW264.7 [14]", "value": "Active"}, {"measurement": "inhibition (INH)", "setting": "Mus musculus [15]", "value": 70.3, "unit": "%"}]}
{"smiles": "CC(C)(C)c1ccc(S(=O)(=O)/C=C/C#N)cc1", "values": [{"measurement": "inhibition", "setting": "RAW264.7 [16]", "value": "Active"}, {"measurement": "inhibition", "setting": "RAW264.7 [17]", "value": "Active"}, {"measurement": "fold change (FC)", "setting": "[18]", "value": 0.1}, {"measurement": "fold change (FC)", "setting": "[19]", "value": 1.5}, {"measurement": "inhibition", "setting": "RAW264.7 [20]", "value": "Active"}, {"measurement": "inhibition", "setting": "RAW264.7 [21]", "value": "Active"}, {"measurement": "inhibition", "setting": "RAW264.7 [22]", "value": "Active"}, {"measurement": "inhibition", "setting": "RAW264.7 [23]", "value": "Active"}]}
{"smiles": "Cc1coc2c(O)c3c(c(C)c12)[C@@H](C)CCC3", "note": "[CACALOL]", "values": [{"measurement": "Activity", "setting": "Mus musculus [13]", "value": 8.55, "unit": "mg"}, {"measurement": "inhibition (INH)", "setting": "Mus musculus [15]", "value": 48.5, "unit": "%"}]}
{"smiles": "COc1ccc2c(c1)c(CC(=O)O)c(C)n2C(=O)c1ccc(Cl)cc1", "note": "[INDOMETHACIN]", "values": [{"measurement": "Activity", "setting": "Mus musculus [13]", "value": 4.05, "unit": "mg"}, {"measurement": "inhibition (INH)", "setting": "Mus musculus [15]", "value": 78.6, "unit": "%"}]}
